In PubChem BioAssay AID328 (DTP/NCI, 2004):
Several values for one entry are separate records, joined by “and”; a condition that tells them apart may be missing. Equal entries are not always repeated. Inconclusive results and toxic doses are left out.

System: BDF1 mice, P388 leukemia ip, median survival T/C
Test: NCI In Vivo Anticancer Drug Screen. Data for tumor model P388 Leukemia (intraperitoneal) in B6D2F1 (BDF1) mice
Conditions: endpoint: median survival time, higher = longer survival
In short: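 Compound-treated tumour-bearing mice were compared with vehicle-treated controls. Survival was recorded, and the value is the treated-group measurement divided by the control-group measurement (T/C).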

[1] = dose: 100.0 mg/kg/injection, schedule: Q04DX003 (ip), vehicle: saline
[2] = dose: 200.0 mg/kg/injection, schedule: Q04DX003 (ip), vehicle: saline
[3] = dose: 400.0 mg/kg/injection, schedule: Q04DX003 (ip), vehicle: saline
[4] = dose: 50.0 mg/kg/injection, schedule: Q01DX009 (ip), vehicle: Klucel (hydroxypropylcellulose) (HPC)
[5] = dose: 50.0 mg/kg/injection, schedule: Q01DX009 (ip), vehicle: saline with Tween-80
[6] = dose: 100.0 mg/kg/injection, schedule: Q01DX009 (ip), vehicle: saline with Tween-80
[7] = dose: 200.0 mg/kg/injection, schedule: Q01DX009 (ip), vehicle: saline with Tween-80

Compound: CN(CCOS(C)(=O)=O)CCOS(C)(=O)=O
- T/C (dose: 0.01 mg/kg/injection, schedule: Q01DX009 (ip), vehicle: saline): 172 % of control
- T/C (dose: 0.02 mg/kg/injection, schedule: Q01DX009 (ip), vehicle: saline): 213 % of control
- T/C (dose: 0.07 mg/kg/injection, schedule: Q04DX003 (ip), vehicle: saline): 122 % of control
- T/C (dose: 0.11 mg/kg/injection, schedule: Q04DX003 (ip), vehicle: saline): 154 % of control
- T/C (dose: 0.36 mg/kg/injection, schedule: Q01DX009 (ip), vehicle: saline): 104 % of control and 218 % of control
- T/C (dose: 0.56 mg/kg/injection, schedule: Q01DX009 (ip), vehicle: saline): 231 % of control and 260 % of control and 90 % of control
- T/C (dose: 0.75 mg/kg/injection, schedule: Q04DX003 (ip), vehicle: saline): 213 % of control
- T/C (dose: 0.84 mg/kg/injection, schedule: Q01DX009 (ip), vehicle: saline): 231 % of control
- T/C (dose: 0.99 mg/kg/injection, schedule: Q04DX003 (ip), vehicle: saline): 225 % of control
- T/C (dose: 1.5 mg/kg/injection, schedule: Q04DX003 (ip), vehicle: saline): 240 % of control and 250 % of control
- T/C (dose: 2.25 mg/kg/injection, schedule: Q04DX003 (ip), vehicle: saline): 150 % of control
- T/C (dose: 2.3 micrograms/kg/injection, schedule: Q01DX009 (ip), vehicle: saline): 87 % of control
- T/C (dose: 19.0 micrograms/kg/injection, schedule: Q01DX009 (ip), vehicle: saline): 160 % of control
- T/C (dose: 44.0 micrograms/kg/injection, schedule: Q01DX009 (ip), vehicle: saline): 158 % of control
- T/C (dose: 66.0 micrograms/kg/injection, schedule: Q01DX009 (ip), vehicle: saline): 220 % of control

Compound: CCCCCCCCCCCCCCCCN(C)Cc1ccccc1
- T/C [1]: 107 % of control
- T/C [2]: 108 % of control
- T/C [3]: 116 % of control

Compound: NC(CCCC(=O)O)P(=O)(O)O (stereo unspecified)
- T/C [4]: 112 % of control
- T/C (dose: 100.0 mg/kg/injection, schedule: Q01DX009 (ip), vehicle: Klucel (hydroxypropylcellulose) (HPC)): 110 % of control
- T/C (dose: 200.0 mg/kg/injection, schedule: Q01DX009 (ip), vehicle: Klucel (hydroxypropylcellulose) (HPC)): 113 % of control

Compound: CC(C)COC(=O)C(C)Oc1ccc(Oc2ccc(Cl)cc2)cc1 (stereo unspecified)
- T/C [5]: 98 % of control
- T/C [6]: 116 % of control
- T/C [7]: 91 % of control

Compound: CCOC(=O)N1C=Cn2c(cnc2C)C1OCC (stereo unspecified)
- T/C [1]: 102 % of control
- T/C [2]: 112 % of control
- T/C [3]: 116 % of control

Compound: CC(CC(O)C(C)(C)C)C(C)(C)C (stereo unspecified)
- T/C (dose: 12.5 mg/kg/injection, schedule: Q01DX009 (ip), vehicle: saline with Tween-80): 117 % of control
- T/C (dose: 25.0 mg/kg/injection, schedule: Q01DX009 (ip), vehicle: saline with Tween-80): 110 % of control
- T/C [5]: 117 % of control

Compound: Cc1cc(C)c(-c2c(C)cc(C)c(C(=O)c3ccc([N+](=O)[O-])cc3)c2C)c(C)c1C(=O)c1ccc([N+](=O)[O-])cc1
- T/C (dose: 3.0 mg/kg/injection, schedule: Q01DX009 (ip), vehicle: Klucel (hydroxypropylcellulose) (HPC)): 100 % of control
- T/C (dose: 6.0 mg/kg/injection, schedule: Q01DX009 (ip), vehicle: Klucel (hydroxypropylcellulose) (HPC)): 100 % of control
- T/C (dose: 12.0 mg/kg/injection, schedule: Q01DX009 (ip), vehicle: Klucel (hydroxypropylcellulose) (HPC)): 95 % of control
- T/C [4]: 92 % of control
- T/C (dose: 100.0 mg/kg/injection, schedule: Q04DX003 (ip), vehicle: Klucel (hydroxypropylcellulose) (HPC)): 95 % of control
- T/C (dose: 200.0 mg/kg/injection, schedule: Q04DX003 (ip), vehicle: Klucel (hydroxypropylcellulose) (HPC)): 100 % of control
- T/C (dose: 400.0 mg/kg/injection, schedule: Q04DX003 (ip), vehicle: Klucel (hydroxypropylcellulose) (HPC)): 100 % of control

Compound: CN(C)/N=C1\C(=O)N(CCCl)c2cc(Cl)c(Cl)cc21
- T/C [5]: 97 % of control
- T/C [6]: 99 % of control
- T/C [7]: 90 % of control

Compound: C1CSCCO1.[Cu+2].[O-][Cl+3]([O-])([O-])O
- T/C (dose: 6.25 mg/kg/injection, schedule: Q04DX003 (ip), vehicle: saline with Tween-80): 97 % of control
- T/C (dose: 12.5 mg/kg/injection, schedule: Q04DX003 (ip), vehicle: saline with Tween-80): 99 % of control
- T/C (dose: 25.0 mg/kg/injection, schedule: Q04DX003 (ip), vehicle: saline with Tween-80): 108 % of control

Compound: CCN(CC)CC(=O)Nc1ccc(Cl)cc1C(O)c1ccccc1 (stereo unspecified)
- T/C (dose: 50.0 mg/kg/injection, schedule: Q01DX009 (ip), vehicle: saline): 103 % of control
- T/C (dose: 100.0 mg/kg/injection, schedule: Q01DX009 (ip), vehicle: saline): 97 % of control
- T/C (dose: 200.0 mg/kg/injection, schedule: Q01DX009 (ip), vehicle: saline): 100 % of control
